In this assay the target is Polθ theta (1-899) (hPolQ) (Homo sapiens (Human), UniProt O75417). The assay can be described thus: Biological Assay 1: Polθ ATPase activity, NADH oxidation-coupled enzymatic assay (10 nM enzyme, 30 min). To be noted: Polθ (1-899) 10 nM, 100 μM ATP, 300 nM dT50 ssDNA; Examples 1 to 268; read-out: ATPase NADH coupling:Standard Screening:hPolQ IC50. It counts as biochemical. Summed up:
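Polθ (1-899) at 10 nM was preincubated with compound for 15 min at room temperature in 20 mM Tris pH 7.80, 80 mM KCl, 10 mM MgCl2. An equal volume of 100 μM ATP, 300 nM dT50 ssDNA and a PK/LDH–NADH coupling system was then added. A340 was read each minute for 30 min. IC50 came from rate slopes over 10-point series with a four-parameter fit.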

A value given as a limit tells only on which side of the number the result lay.

Chain of Polθ theta (1-899) (hPolQ) (O75417 1-899): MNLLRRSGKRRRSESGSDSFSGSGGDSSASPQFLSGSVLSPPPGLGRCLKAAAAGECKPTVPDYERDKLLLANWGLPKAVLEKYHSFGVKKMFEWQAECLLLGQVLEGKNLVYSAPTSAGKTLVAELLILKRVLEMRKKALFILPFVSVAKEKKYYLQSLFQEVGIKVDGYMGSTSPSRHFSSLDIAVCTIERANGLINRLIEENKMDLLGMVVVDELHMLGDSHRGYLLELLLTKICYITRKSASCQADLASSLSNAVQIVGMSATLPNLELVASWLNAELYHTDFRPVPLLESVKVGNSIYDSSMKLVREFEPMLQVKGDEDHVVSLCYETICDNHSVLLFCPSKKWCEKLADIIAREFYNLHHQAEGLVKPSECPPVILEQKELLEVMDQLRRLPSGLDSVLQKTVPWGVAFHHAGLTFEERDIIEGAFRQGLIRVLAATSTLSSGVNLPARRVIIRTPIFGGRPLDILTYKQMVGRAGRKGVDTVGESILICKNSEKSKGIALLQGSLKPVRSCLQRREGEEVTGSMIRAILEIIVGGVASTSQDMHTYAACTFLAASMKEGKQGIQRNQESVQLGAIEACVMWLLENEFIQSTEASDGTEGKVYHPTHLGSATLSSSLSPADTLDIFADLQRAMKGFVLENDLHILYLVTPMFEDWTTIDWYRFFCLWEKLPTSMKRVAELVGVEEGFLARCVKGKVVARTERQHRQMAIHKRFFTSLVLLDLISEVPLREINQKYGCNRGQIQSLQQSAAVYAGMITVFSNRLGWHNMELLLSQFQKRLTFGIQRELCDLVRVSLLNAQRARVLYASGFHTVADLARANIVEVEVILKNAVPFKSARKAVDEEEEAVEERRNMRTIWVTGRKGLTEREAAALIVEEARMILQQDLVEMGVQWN

For `COc1cnc(Cl)c(F)c1-c1cc(C)ncc1C(=O)Nc1nnc(OCC23CC(O)(C2)C3)s1` [Example 185, 2′-chloro-3′-fluoro-N-(5-((3-hydroxybicyclo(1.1.1)pentan-1-yl)methoxy)-1,3,4-thiadiazol-2-yl)-5′-methoxy-6-methyl-(4,4′-bipyridine)-3-carboxamide], the IC50 is at most 200 nM.
The result for `COc1cnc(Cl)cc1-c1cc(C)ncc1C(=O)Nc1nnc(OC[C@@H]2COCCO2)s1` [Example 186, (S)—N-(5-((1,4-dioxan-2-yl)methoxy)-1,3,4-thiadiazol-2-yl)-2′-chloro-5′-methoxy-6-methyl-(4,4′-bipyridine)-3-carboxamide] reads at most 200 nM.
The result for `COc1cnc(Cl)cc1-c1cc(C)ncc1C(=O)Nc1nnc(OC[C@H]2COCCO2)s1` [Example 187, (R)—N-(5-((1,4-dioxan-2-yl)methoxy)-1,3,4-thiadiazol-2-yl)-2′-chloro-5′-methoxy-6-methyl-(4,4′-bipyridine)-3-carboxamide] reads at most 200 nM; that for `COc1ccccc1-c1cnccc1C(=O)Nc1nnc(OCCC2(C#N)CC2)s1` [Example 192, N-(5-(2-(1-cyanocyclopropyl)ethoxy)-1,3,4-thiadiazol-2-yl)-3-(2-methoxyphenyl)pyridine-4-carboxamide], 1000 to 10000 nM.
On to `COc1cnc(Cl)cc1-c1cc(C)ncc1C(=O)Nc1nnc(OC[C@H]2C[C@@H](O)C2)s1` [Example 193, 2′-chloro-N-(5-(((1s,3s)-3-hydroxycyclobutyl)methoxy)-1,3,4-thiadiazol-2-yl)-5′-methoxy-6-methyl-(4,4′-bipyridine)-3-carboxamide], for which the IC50 was at most 200 nM.
The result for `COc1cccc(F)c1-c1cn2ncc(C)c2cc1C(=O)Nc1nnc(OC[C@H]2CC[C@H](O)CC2)s1` [Example 194, 6-(2-fluoro-6-methoxyphenyl)-N-(5-(((1r,4r)-4-hydroxycyclohexyl)methoxy)-1,3,4-thiadiazol-2-yl)-3-methylpyrazolo(1,5-a)pyridine-5-carboxamide] reads 1000 to 10000 nM.
In the case of `COc1cccc(F)c1-c1cc2cnc(C)n2cc1C(=O)Nc1nnc(OC[C@H]2CC[C@H](O)CC2)s1` [Example 195, 7-(2-fluoro-6-methoxyphenyl)-N-(5-(((1r,4r)-4-hydroxycyclohexyl)methoxy)-1,3,4-thiadiazol-2-yl)-3-methylimidazo(1,5-a)pyridine-6-carboxamide], the IC50 is at most 200 nM.
As to `COc1cnc(Cl)cc1-c1cc(C)ncc1C(=O)Nc1nnc(OC[C@H]2CC[C@@H](F)CC2)s1` [Example 196, 2′-chloro-N-(5-(((1s,4s)-4-fluorocyclohexyl)methoxy)-1,3,4-thiadiazol-2-yl)-5′-methoxy-6-methyl-(4,4′-bipyridine)-3-carboxamide], the IC50 is at most 200 nM.
The result for `COc1cnc(Cl)cc1-c1cc(C)ncc1C(=O)Nc1nnc(OC[C@H]2CC[C@H](F)CC2)s1` [Example 197, 2′-chloro-N-(5-(((1r,4r)-4-fluorocyclohexyl)methoxy)-1,3,4-thiadiazol-2-yl)-5′-methoxy-6-methyl-(4,4′-bipyridine)-3-carboxamide] reads at most 200 nM; that for `COc1cnc(Cl)cc1-c1cc(C)ncc1C(=O)Nc1nnc(OCC2(F)CC2)s1` [Example 198, 2′-chloro-N-(5-((1-fluorocyclopropyl)methoxy)-1,3,4-thiadiazol-2-yl)-5′-methoxy-6-methyl-(4,4′-bipyridine)-3-carboxamide], at most 200 nM.
The result for `COc1cccc(F)c1-c1cc2nc[nH]c2cc1C(=O)Nc1nnc(OC[C@H]2CC[C@H](O)CC2)s1` [Example 199, 5-(2-fluoro-6-methoxyphenyl)-N-(5-(((1r,4r)-4-hydroxycyclohexyl)methoxy)-1,3,4-thiadiazol-2-yl)-1H-benzo(d)imidazole-6-carboxamide] reads 1000 to 10000 nM; that for `COc1cccc(F)c1-c1cc2ncn(C)c2cc1C(=O)Nc1nnc(OC[C@H]2CC[C@H](O)CC2)s1` [Example 200, 5-(2-fluoro-6-methoxyphenyl)-N-(5-(((1r,4r)-4-hydroxycyclohexyl)methoxy)-1,3,4-thiadiazol-2-yl)-1-methyl-1H-benzo(d)imidazole-6-carboxamide], 200 to 500 nM; that for `COc1cccc(F)c1-c1cn2ncc(F)c2cc1C(=O)Nc1nnc(OC[C@H]2CC[C@H](O)CC2)s1` [Example 201, 3-fluoro-6-(2-fluoro-6-methoxyphenyl)-N-(5-(((1r,4r)-4-hydroxycyclohexyl)methoxy)-1,3,4-thiadiazol-2-yl)pyrazolo(1,5-a)pyridine-5-carboxamide], at most 200 nM.
With `COc1cnc(Cl)cc1-c1cc(C)ncc1C(=O)Nc1nnc(OC[C@@H]2C[C@@H]2F)s1` [Example 202, 2′-chloro-N-(5-(((1S,2S)-2-fluorocyclopropyl)methoxy)-1,3,4-thiadiazol-2-yl)-5′-methoxy-6-methyl-(4,4′-bipyridine)-3-carboxamide], the IC50 was at most 200 nM.
On to `COc1cnc(C)cc1-c1cc(C)ncc1C(=O)Nc1nnc(OCC2(F)CC2)s1` [Example 203, N-(5-((1-fluorocyclopropyl)methoxy)-1,3,4-thiadiazol-2-yl)-5′-methoxy-2′,6-dimethyl-(4,4′-bipyridine)-3-carboxamide], for which the IC50 is at most 200 nM.
The result for `COc1cnc(Cl)cc1-c1cc(C)ncc1C(=O)Nc1nnc(OCC2CCC2(F)F)s1` (stereo not drawn) [Example 204, 2′-chloro-N-(5-((2,2-difluorocyclobutyl)methoxy)-1,3,4-thiadiazol-2-yl)-5′-methoxy-6-methyl-(4,4′-bipyridine)-3-carboxamide] reads at most 200 nM.
In the case of `COc1cnc(Cl)cc1-c1cc(C)ncc1C(=O)Nc1nnc(OCC2(C#N)CC2)s1` [Example 205, 2′-chloro-N-(5-((1-cyanocyclopropyl)methoxy)-1,3,4-thiadiazol-2-yl)-5′-methoxy-6-methyl-(4,4′-bipyridine)-3-carboxamide], the IC50 was at most 200 nM.
Consider `COc1cnc(Cl)cc1-c1cc(C)ncc1C(=O)Nc1nnc(OCC2CC2(F)F)s1` (stereo not drawn) [Example 206, 2′-chloro-N-(5-((2,2-difluorocyclopropyl)methoxy)-1,3,4-thiadiazol-2-yl)-5′-methoxy-6-methyl-(4,4′-bipyridine)-3-carboxamide], for which the 50% inhibitory concentration (IC50) is at most 200 nM.
The result for `COc1cnc(C)c(F)c1-c1cc(C)ncc1C(=O)Nc1nnc(OC[C@H]2CC[C@H](O)CC2)s1` [Example 212, 3′-fluoro-N-(5-(((1r,4r)-4-hydroxycyclohexyl)methoxy)-1,3,4-thiadiazol-2-yl)-5′-methoxy-2′,6-dimethyl-(4,4′-bipyridine)-3-carboxamide] reads at most 200 nM.
The result for `COc1cnc(C)c(F)c1-c1cc(C)ncc1C(=O)Nc1nnc(OC[C@H]2CC[C@@](C)(O)CC2)s1` [Example 213, 3′-fluoro-N-(5-(((1s,4s)-4-hydroxy-4-methylcyclohexyl)methoxy)-1,3,4-thiadiazol-2-yl)-5′-methoxy-2′,6-dimethyl-(4,4′-bipyridine)-3-carboxamide] reads at most 200 nM; that for `COc1cnc(Cl)cc1-c1cc(C)ncc1C(=O)Nc1nnc(OC[C@H]2CC[C@](C)(O)CC2)s1` [Example 214, 2′-chloro-N-(5-(((1r,4r)-4-hydroxy-4-methylcyclohexyl)methoxy)-1,3,4-thiadiazol-2-yl)-5′-methoxy-6-methyl-(4,4′-bipyridine)-3-carboxamide], at most 200 nM.

The record behind these values is patent publication US20250325552A1, “SUBSTITUTED THIADIAZOLYL DERIVATIVES AS DNA POLYMERASE THETA INHIBITORS” (IDEAYA Biosciences, Inc., priority 2020, published 2025).
